Patent publication US12551573B2, “Compositions and methods for the targeting of PCSK9” (Scribe Therapeutics Inc., priority 2022, dated 2026)

Tested on: human PCSK9 locus
Experiment: Secreted PCSK9 by ELISA (normalized to total cell count) in Huh7 cells transfected with mRNA and gRNA
Format: cell-based
Conditions: paired with LTRP5-ADD-ZIM3 mRNA; for Secreted PCSK9 / Percent reduction in PCSK9 secretion / Average percent reduction in PCSK9 secretion: Huh7 cells, 6 days post-transfection; for Secreted PCSK9: normalized to total cell count; for Percent reduction in PCSK9 secretion: relative to non-targeting gRNA control; for Average percent reduction in PCSK9 secretion: averaged from the two doses
Method: To assess PCSK9 secretion, seeded Huh7 cells were transfected with mRNA encoding a catalytically-active CasX 676, dXR1, or LTRP5-ADD-ZIM3 and a gRNA with scaffold 316 and spacer targeting either the B2M or PCSK9 locus. Media supernatant was harvested at 6, 18, 36, and 87 days post-transfection to assess level of PCSK9 secretion by ELISA. Levels of PCSK9 secretion were normalized to total cell count. As an additional control, PCSK9 secretion was also measured in the media supernatant harvested from wells containing untreated, naïve cells.
The following three human hepatocyte cancer cell lines were used in this experiment: HepG2 cells, Hep3B cells, and Huh7 cells. ˜15,000 cells of each cell line were seeded per well; the next day, seeded cells were transfected with mRNA encoding a catalytically-active CasX 676, dXR1, or LTRP5-ADD-ZIM3 and a gRNA with scaffold 316 and spacer targeting either the B2M or PCSK9 locus (see Table 23 for specific spacers and sequences). Media supernatant was harvested at 4 days post-transfection to assess level of PCSK9 secretion by ELISA, and levels of PCSK9 secretion were normalized to total cell count and illustrated in FIGS. 11A-11C. Culturing of treated Huh7 cells continued, and media supernatant was harvested at 14 and 27 days post-transfection for measuring PCSK9 secretion by ELISA. As an additional experimental control, PCSK9 secretion was also measured in the media supernatant harvested from wells containing untreated, naïve cells.
To assess PCSK9 secretion, seeded Huh7 cells were co-transfected with mRNA encoding for LTRP5-ADD-ZIM3 and a gRNA with scaffold 316 and spacer targeting the PCSK9 locus using Lipofectamine™ 3000. Two doses of total RNA input at a 2:1 mass ratio of mRNA to gRNA were used for screening: 50 ng mRNA: 25 ng gRNA and 25 ng mRNA: 12.5 ng gRNA. Media supernatant was harvested at 6 days post-transfection to assess level of PCSK9 secretion by ELISA (Table 74). Levels of PCSK9 secretion were normalized to total cell count. As an additional control, PCSK9 secretion was also measured in the media supernatant harvested from cells transfected with mRNA encoding for mScarlet.

Substance	Secreted PCSK9 (25 ng mRNA:12.5 ng gRNA) [ng/mL]	Percent reduction in PCSK9 secretion (25 ng mRNA:12.5 ng gRNA) [%]	Secreted PCSK9 (50 ng mRNA:25 ng gRNA) [ng/mL]	Percent reduction in PCSK9 secretion (50 ng mRNA:25 ng gRNA) [%]	Average percent reduction in PCSK9 secretion [%]	repression of PCSK9 secretion by spacer (Huh7, scaffold 316, days 4, 14, 27)
CAGUACGUUCCAGGCAUUCA (listed as RNA, chemistry not given here) [spacer 6.171, Intron 1]	55.95	21.46	52.41	36.3	28.88	–
GUUAAUGUUUAAUCAGAUAG (listed as RNA, chemistry not given here) [spacer 6.153, Promoter]	86.58	21.52	73.23	10.99	5.27	–
GCAGCGACGUCGAGGCGCUC (listed as RNA, chemistry not given here) [spacer 6.155, Exon 1]	56.36	20.89	29.45	64.21	42.55	–
TG-06-344 (guide CAGUUUCUGCCUCGCCGCGG; listed as RNA, chemistry not given here)	76.43	7.28	82.29	0.01	3.64	–
CCUUUGUUUCUUCCCAGUAU (listed as RNA, chemistry not given here) [spacer 6.122, Promoter]	86.06	20.79	79.36	3.54	8.63	–
GGAAGGGCUGUCGAUACUGG (listed as RNA, chemistry not given here) [spacer 6.121, Promoter]	37.13	47.89	28.33	65.57	56.73	–
AGCCCAGUUAGGAUUUGGGA (listed as RNA, chemistry not given here) [spacer 6.149, Promoter]	38.33	46.21	21.18	74.26	60.23	–
AGAAGAUUCAAUUUGCAAAG (listed as RNA, chemistry not given here) [spacer 6.132, Promoter]	75.01	5.29	56.68	31.11	12.91	–
TG-06-249 (guide AAACCAAAUCGGAACCCACU; listed as RNA, chemistry not given here)	82.36	15.61	87.36	6.18	10.89	–
TG-06-251 (guide CUCCAGGCCCUCCACCCUCC; listed as RNA, chemistry not given here)	44.62	37.37	36.8	55.28	46.32	–
GCUCCUGCACAGUCCUCCCC (listed as RNA, chemistry not given here) [spacer 6.161, Exon 1]	53.16	25.38	29.55	64.08	44.73	–
TG-06-345 (guide GCCUCGCCGCGGCACAGGUG; listed as RNA, chemistry not given here)	85.68	20.26	81.22	1.28	9.49	–
TG-06-351 (guide UUAUGACACAGAACUCAUGC; listed as RNA, chemistry not given here)	62.93	11.67	56.34	31.52	21.6	–
AAACUUAGCCUGGACCCCCU (listed as RNA, chemistry not given here) [spacer 6.140, Promoter]	59.94	15.87	61.68	25.04	20.45	–
AGAAAGAGCAAGCCUCAUGU (listed as RNA, chemistry not given here) [spacer 6.125, Promoter]	46.11	35.28	24.93	69.7	52.49	–
GAAGUCUCACUGGUCAGCAG (listed as RNA, chemistry not given here) [spacer 6.146, Promoter]	20.34	71.45	40.84	50.36	60.9	–
UCCCUCUGCGCGUAAUCUGA (listed as RNA, chemistry not given here) [spacer 6.150, Promoter]	39.59	44.42	18.33	77.73	61.08	–
AGAAAUCAACUGGACAAGCA (listed as RNA, chemistry not given here) [spacer 6.128, Promoter]	62.29	12.57	42.21	48.7	30.63	–
GAGCAGGCCAUUUCACUCGG (listed as RNA, chemistry not given here) [spacer 6.119, Promoter]	84.54	18.66	70.37	14.47	2.1	–
UUUUACACACCAUGUUCAAG (listed as RNA, chemistry not given here) [spacer 6.129, Promoter]	90.82	27.47	59.93	27.16	0.16	–
CGGGGUUGGGAGACCCGGAG (listed as RNA, chemistry not given here) [spacer 6.169, Intron 1]	62.55	12.2	66.39	19.3	15.75	–
GAGUGAAAUGGCCUGCUCUG (listed as RNA, chemistry not given here) [spacer 6.118, Promoter]	54.78	23.11	35.5	56.86	39.99	–
AGGGAUUUAUACUACAAAGA (listed as RNA, chemistry not given here) [spacer 6.138, Promoter]	30.87	56.67	18.99	76.92	66.79	most effective repression of PCSK9 secretion
GGAAAGCUGAGCUUGUGCCU (listed as RNA, chemistry not given here) [spacer 6.135, Promoter]	44.59	37.42	25.66	68.82	53.12	–
